{"source": "patent US8163766B2", "about": "“Beta-secretase modulators and methods of use” (Amgen Inc., priority 2005, dated 2012)", "tested_on": "Aβ 40 in conditioned media of cells stably expressing Amyloid Precursor Protein (APP)", "test": "BACE Cell-Based Assay (Aβ40 in conditioned medium, sandwich ELISA)", "conditions": "24 hours of incubation with the test compounds, Aβ 40 by sandwich ELISA, read-out: IC50 values in the cell-based assay (inhibition of Aβ 40)", "description": "The cell-based assay measures inhibition or reduction of Aβ40 in conditioned medium of test compound treated cells, which express amyloid precursor protein.\nCells stably expressing Amyloid Precursor Protein (APP) were plated at a density of 40K cells/well in 96 well plates (Costar). The cells were cultivated for 24 h at 37° C. and 5% CO2 in DMEM supplemented with 10% FBS. The test compounds were then added to cells in 10-point dose response concentrations with the starting concentration being either 100 μM or 10 μM. The compounds were diluted from stock solutions in DMSO and the final DMSO concentration of the test compounds on cells was 0.1%. After 24 hours of incubation with the test compounds the supernatant conditioned media was collected and the Aβ 40 levels were determined using a sandwich ELISA. The IC50 of the compound was calculated from the percent of control or percent inhibition of Aβ 40 as a function of the concentration of the test compound.\nThe sandwich ELISA to detect Aβ 40 was performed in 96 well microtiter plates, which were pre-treated with goat anti-rabbit IgG (Pierce). The capture and detecting antibody pair that were used to detect Aβ 40 from cell supernatants were affinity purified pAb40 (Biosource) and biotinylated 6E10 (Signet Labs Inc.), respectively. The optimal concentration for the pAb40 antibody was 3 μg/ml in Superblock/TBS (Pierce) that was supplemented with 0.05% Tween 20 (Sigma). Optimal concentration for the detection antibody 6E10-biotinylated was […] in Superblock/TBS (Pierce) that had been supplemented with 2% normal goat serum and 2% normal mouse serum.\nCellular supernatants were incubated with the capture antibody for 3 h at 4° C., followed by 3 wash steps in TBS-tween (0.05%). The detecting antibody incubation was for 2 h at 4° C., again followed by the wash steps as described previously. The final readout of the ELISA is Time-Resolved Fluorescence (counts per minute) using Delfia reagents Streptavidin-Europium and Enhancement solutions (Perkin Elmer) and the Victor 2 multilabel counter (Perkin Elmer)."}
{"smiles": "CCc1ccc2c(c1)C(NC[C@@H](O)[C@H](Cc1ccccc1)NC(=O)c1cc(C#N)c(=O)n(C3CCCC3)c1)CC1(CCCC1)O2", "note": "(some centres unmarked) [Example 1]", "values": [{"measurement": "IC50", "result": "≤ 5", "unit": "µM"}]}
{"smiles": "CCc1ccc2c(c1)C(NC[C@@H](O)[C@H](Cc1ccccc1)NC(=O)c1ccc(=O)n(C3CCCC3)c1)CC1(CCCC1)O2", "note": "(some centres unmarked) [Example 2]", "values": [{"measurement": "IC50", "result": "≤ 5", "unit": "µM"}]}
{"smiles": "CCc1ccc2c(c1)C(NC[C@@H](O)[C@H](Cc1ccccc1)NC(=O)c1cc(-c3ccccc3F)c(=O)n(C3CCCC3)c1)CC1(CCCC1)O2", "note": "(some centres unmarked) [Example 3]", "values": [{"measurement": "IC50", "result": "≤ 5", "unit": "µM"}]}
{"smiles": "CCc1ccc2c(c1)C(NC[C@@H](O)[C@H](Cc1ccccc1)NC(=O)c1cc(-c3ccccn3)c(=O)n(C3CCCC3)c1)CC1(CCCC1)O2", "note": "(some centres unmarked) [Example 5]", "values": [{"measurement": "IC50", "result": "≤ 5", "unit": "µM"}]}
{"smiles": "CCc1ccc2c(c1)C(NC[C@@H](O)[C@H](Cc1ccccc1)NC(=O)c1cc(-n3cccn3)c(=O)n(C3CCCC3)c1)CC1(CCCC1)O2", "note": "(some centres unmarked) [Example 6]", "values": [{"measurement": "IC50", "result": "≤ 5", "unit": "µM"}]}
{"smiles": "CCc1ccc2c(c1)C(NC[C@@H](O)[C@H](Cc1ccccc1)NC(=O)c1cc(-c3ccc(F)cc3)c(=O)n(C3CCCC3)c1)CC1(CCCC1)O2", "note": "(some centres unmarked) [Example 7]", "values": [{"measurement": "IC50", "result": "≤ 5", "unit": "µM"}]}
{"smiles": "CCc1ccc2c(c1)C(NC[C@@H](O)[C@H](Cc1ccccc1)NC(=O)c1cc(-c3ccccc3)c(=O)n(C3CCCC3)c1)CC1(CCCC1)O2", "note": "(some centres unmarked) [Example 8]", "values": [{"measurement": "IC50", "result": "≤ 5", "unit": "µM"}]}
{"smiles": "CCc1ccc2c(c1)C(NC[C@@H](O)[C@H](Cc1ccccc1)NC(=O)c1cc(-c3cccc(F)c3)c(=O)n(C3CCCC3)c1)CC1(CCCC1)O2", "note": "(some centres unmarked) [Example 9]", "values": [{"measurement": "IC50", "result": "≤ 5", "unit": "µM"}]}
{"smiles": "CCc1ccc2c(c1)C(NC[C@@H](O)[C@H](Cc1ccccc1)NC(=O)c1ccc(=O)n(C3CCC(c4ccccc4)C3)c1)CC1(CCCC1)O2", "note": "(some centres unmarked) [Example 10]", "values": [{"measurement": "IC50", "result": "≤ 5", "unit": "µM"}]}
{"smiles": "CCc1ccc2c(c1)C(NC[C@@H](O)[C@H](Cc1ccccc1)NC(=O)c1ccc(=O)n(C3CCCC(c4ccccc4)C3)c1)CC1(CCCC1)O2", "note": "(some centres unmarked) [Example 12]", "values": [{"measurement": "IC50", "result": "≤ 5", "unit": "µM"}]}
{"smiles": "CCc1ccc2c(c1)C(NC[C@@H](O)[C@H](Cc1ccccc1)NC(=O)c1cc(-c3cccnc3)c(=O)n(C3CCCC3)c1)CC1(CCCC1)O2", "note": "(stereo partly drawn) [Example 14, 1-cyclopentyl-N-((2S,3R)-4-(6-ethyl-2,2-spirocyclopentylchroman-4-ylamino)-3-hydrodroxy-1-phenylbutan-2-yl)-6-OXO-5-(pyridine-3-yl)-1,6-dihydropyridine-3-carboxamide]", "values": [{"measurement": "IC50", "result": "≤ 5", "unit": "µM"}]}
{"smiles": "CCc1ccc2c(c1)C(NC[C@@H](O)[C@H](Cc1ccccc1)NC(=O)c1cc(-c3ccncc3)c(=O)n(C3CCCC3)c1)CC1(CCCC1)O2", "note": "(stereo partly drawn) [Example 15, 1-cyclopentyl-N-((2S,3R)-4-(6-ethyl-2,2-spirocyclopentylchroman-4-ylamino)-3-hydrodroxy-1-phenylbutan-2-yl)-6-OXO-5-(pyridin-4-yl)-1,6-dihydropyridine-3-carboxamide]", "values": [{"measurement": "IC50", "result": "≤ 5", "unit": "µM"}]}
{"smiles": "CCc1ccc2c(c1)C(NC[C@@H](O)[C@H](Cc1ccccc1)NC(=O)c1cc(-c3cncnc3)c(=O)n(C3CCCC3)c1)CC1(CCCC1)O2", "note": "(stereo partly drawn) [Example 16, 1-cyclopentyl-N-((2S,3R)-4-(6-ethyl-2,2-spirocyclopentylchroman-4-ylamino)-3-hydrodroxy-1-phenylbutan-2-yl)-6-OXO-5-(pyrimidin-5-yl)-1,6-dihydropyridine-3-carboxamide]", "values": [{"measurement": "IC50", "result": "≤ 5", "unit": "µM"}]}
{"smiles": "CCc1ccc2c(c1)C(NC[C@@H](O)[C@H](Cc1ccccc1)NC(=O)c1cc(N3CCCC3)c(=O)n(C3CCCC3)c1)CC1(CCCC1)O2", "note": "(stereo partly drawn) [Example 17, 1-cyclopentyl-N-((2S,3R)-4-(6-ethyl-2,2-spirocyclopentylchroman-4-ylamino)-3-hydrodroxy-1-phenylbutan-2-yl)-6-OXO-5-(pyrrolidin-1-yl)-1,6-dihydropyridine-3-carboxamide]", "values": [{"measurement": "IC50", "result": "≤ 5", "unit": "µM"}]}
{"smiles": "CCc1ccc2c(c1)C(NC[C@@H](O)[C@H](Cc1ccccc1)NC(=O)c1cc(NC(C)C)c(=O)n(C3CCCC3)c1)CC1(CCCC1)O2", "note": "(stereo partly drawn) [Example 18, 1-cyclopentyl-N-((2S,3R)-4-(6-ethyl-2,2-spirocyclopentylchroman-4-ylamino)-3-hydrodroxy-1-phenylbutan-2-yl)-5-(isopropylamino)-6-oxo-1,6-dihydropyridine-3-carboxamide]", "values": [{"measurement": "IC50", "result": "≤ 5", "unit": "µM"}]}
{"smiles": "CCc1ccc2c(c1)C(NC[C@@H](O)[C@H](Cc1ccccc1)NC(=O)c1cc(N(C)C)c(=O)n(C3CCCC3)c1)CC1(CCCC1)O2", "note": "(stereo partly drawn) [Example 19, 1-cyclopentyl-5-(dimethylamino)-N-((2S,3R)-4-(6-ethyl-2,2-spirocyclopentylchroman-4-ylamino)-3-hydrodroxy-1-phenylbutan-2-yl)-6-oxo-1,6-dihydropyridine-3-carboxamide]", "values": [{"measurement": "IC50", "result": "≤ 5", "unit": "µM"}]}
{"smiles": "CCc1ccc2c(c1)C(NC[C@@H](O)[C@H](Cc1ccccc1)NC(=O)c1cc(-c3cnccn3)c(=O)n(C3CCCC3)c1)CC1(CCCC1)O2", "note": "(stereo partly drawn) [Example 22, 1-cyclopentyl-N-((2S,3R)-4-(6-ethyl-2,2-spirocyclopentylchroman-4-ylamino)-3-hydrodroxy-1-phenylbutan-2-yl)-6-oxo-5-(pyrazin-2-yl)-1,6-dihydropyridine-3-carboxamide]", "values": [{"measurement": "IC50", "result": "≤ 5", "unit": "µM"}]}
{"smiles": "CCc1ccc2c(c1)C(NC[C@@H](O)[C@H](Cc1ccccc1)NC(=O)c1cc(C3CCCCO3)c(=O)n(C3CCCC3)c1)CC1(CCCC1)O2", "note": "(stereo partly drawn) [Example 23, 1-cyclopentyl-N-((2S,3R)-4-(6-ethyl-2,2-spirocyclopentylchroman-4-ylamino)-3-hydrodroxy-1-phenylbutan-2-yl)-6-OXO-5-(tetrahydro-2H-pyran-2-yl)-1,6-dihydropyridine-3-carboxamide]", "values": [{"measurement": "IC50", "result": "≤ 5", "unit": "µM"}]}
{"smiles": "CCc1ccc2c(c1)C(NC[C@@H](O)[C@H](Cc1ccccc1)NC(=O)c1cc(C3CCCO3)c(=O)n(C3CCCC3)c1)CC1(CCCC1)O2", "note": "(stereo partly drawn) [Example 24, 1-cyclopentyl-N-((2S,3R)-4-(6-ethyl-2,2-spirocyclopentylchroman-4-ylamino)-3-hydrodroxy-1-phenylbutan-2-yl)-6-OXO-5-(tetrahydrofuran-2-yl)-1,6-dihydropyridine-3-carboxamide]", "values": [{"measurement": "IC50", "result": "≤ 5", "unit": "µM"}]}
{"smiles": "CCc1ccc2c(c1)[C@@H](NC[C@@H](O)[C@H](Cc1ccccc1)NC(=O)C1CN(Cc3ccccc3)CCO1)CC1(CCCC1)O2", "note": "(stereo partly drawn) [Example 29, 4-Benzyl-N-((2S,3R)-4-((S)-6-ethyl-2,2-spirocyclopentylchroman-4-ylamino)-3-hydroxy-1-phenylbutan-2-yl) morpholine-2-carboxamide]", "values": [{"measurement": "IC50", "result": "≤ 5", "unit": "µM"}]}
{"smiles": "CC(C)c1ccc2c(c1)[C@@H](NC[C@@H](O)[C@H](Cc1ccccc1)NC(=O)C1CCCN(c3ccccn3)C1)CC1(CCCC1)O2", "note": "(stereo partly drawn) [Example 32, N-((2S,3R)-3-hydroxy-4-((S)-6-isopropyl-2,2-spirocyclopentylchroman-4-ylamino)-1-phenylbutan-2-yl)-1-(pyridin-2-yl)piperidine-3-carboxamide]", "values": [{"measurement": "IC50", "result": "≤ 5", "unit": "µM"}]}
{"smiles": "CCc1ccc2c(c1)[C@@H](NC[C@@H](O)[C@H](Cc1ccccc1)NC(=O)C1CN(C3CCCC3)c3ccccc3O1)CC1(CCCC1)O2", "note": "(stereo partly drawn) [Example 43, 4-Cyclopentyl-N-((2S,3R)-4-((S)-6-ethyl-2,2-spirocyclopentylchroman-4-ylamino)-3-hydroxy-1-phenylbutan-2-yl)-3,4-dihydro-2H-benzo[b][1,4]oxazine-2-carboxamide]", "values": [{"measurement": "IC50", "result": "≤ 5", "unit": "µM"}]}
{"smiles": "CCc1ccc2c(c1)[C@@H](NC[C@@H](O)[C@H](Cc1ccccc1)NC(=O)[C@H]1CN(C)c3ccccc3O1)CC1(CCCC1)O2", "note": "[Example 47, (R)—N-((2S,3R)-4-((S)-6-ethyl-2,2-spirocyclopentylchroman-4-ylamino)-3-hydroxy-1-phenylbutan-2-yl)-4-methyl-3,4-dihydro-2H-benzo[b][1,4]oxazine-2-carboxamide]", "values": [{"measurement": "IC50", "result": "≤ 5", "unit": "µM"}]}
{"smiles": "CCc1ccc2c(c1)[C@@H](NC[C@@H](O)[C@H](Cc1ccccc1)NC(=O)C1CN(C)c3ccccc3O1)CC1(CCCC1)O2", "note": "(stereo partly drawn) [Example 48, (S)—N-((2S,3R)-4-((S)-6-ethyl-2,2-spirocyclopentylchroman-4-ylamino)-3-hydroxy-1-phenylbutan-2-yl)-4-methyl-3,4-dihydro-2H-benzo[b][1,4]oxazine-2-carboxamide]", "values": [{"measurement": "IC50", "result": "≤ 5", "unit": "µM"}]}
{"smiles": "CCc1ccc2c(c1)[C@@H](NC[C@@H](O)[C@H](Cc1ccccc1)NC(=O)C1Cc3ccccc3N(C)C1)CC1(CCCC1)O2", "note": "(stereo partly drawn) [Example 49, N-((2S,3R)-4-((S)-6-ethyl-2,2-spirocyclopentylchroman-4-ylamino)-3-hydroxy-1-phenylbutan-2-yl)-1-methyl-1,2,3,4-tetrahydroquinoline-3-carboxamide]", "values": [{"measurement": "IC50", "result": "≤ 5", "unit": "µM"}]}
{"smiles": "CCc1ccc2c(c1)[C@@H](NC[C@@H](O)[C@H](Cc1ccccc1)NC(=O)[C@H]1CN(C(C)=O)c3ccccc3O1)CC1(CCCC1)O2", "note": "[Example 50, (R)-4-acetyl-N-((2S,3R)-4-((S)-6-ethyl-2,2-spirocyclopentylchroman-4-ylamino)-3-hydroxy-1-phenylbutan-2-yl)-3,4-dihydro-2H-benzo[b][1,4]oxazine-2-carboxamide]", "values": [{"measurement": "IC50", "result": "≤ 5", "unit": "µM"}]}
